The text below walks through data of US7144891B2, “Benzo[b ]pyrano[3,2- h ]acridin-7-one cinnamate compounds” (Les Laboratoires Servier, priority 2004, dated 2006).

The subject of data set [1] is L1210 murine leukaemia cells. As to the kind of experiment: In vitro cytotoxicity, Microculture Tetrazolium Assay, L1210. The class given is cell-based. The following applies: L1210, 2 days incubation; read-out: IC50 (concentration of cytotoxic agent which inhibits proliferation of the treated cells by 50%). On the procedure: (§1) Two cell lines were used • 1 murine leukaemia: L1210, • 1 human epidermoid carcinoma: KB-3-1
(§2) The cells are cultured in RPMI 1640 complete culture medium containing 10% foetal calf serum, 2 mM glutamine, 50 units/ml of penicillin, 50 μg/ml of streptomycin and 10 mM Hepes, pH=7.4. The cells are distributed on microplates and are exposed to the cytotoxic compounds. The cells are then incubated for 2 days (L1210) or 4 days (KB-3-1). The number of viable cells is then quantified by a colorimetric assay, the Microculture Tetrazolium Assay (Cancer Res. 1987, 47, 939–942).
(§3) The results are expressed in terms of the IC50 (the concentration of cytotoxic agent which inhibits proliferation of the treated cells by 50%).

The test system of data set [2] is KB-3-1 human epidermoid carcinoma cells. As to the kind of experiment: In vitro cytotoxicity, Microculture Tetrazolium Assay, KB-3-1. It counts as cell-based. The following applies: KB-3-1, 4 days incubation; read-out: IC50 (concentration of cytotoxic agent which inhibits proliferation of the treated cells by 50%). The protocol:
as §1, §2, §3

Data set [3] concerns C38 adenocarcinoma of the colon. As to the kind of experiment: In vivo anti-tumour activity with respect to C38 adenocarcinoma of the colon. The note with it: i.v. once per week for 3 weeks (days 10, 17, 24), s.c. C38 tumour in B6D2F1 mice. On the procedure:
Anti-tumour Activity with Respect to C38 Adenocarcinoma of the Colon
Tumour fragments of C38 adenocarcinoma of the colon weighing approximately 30 mg were implanted under the skin of B6D2F1 mice (Iffa Credo, France) on day 0.
After growth of the tumour, the mice were divided into control (18 animals) and treated (6 or 7 animals) groups, which were homogeneous with respect to tumour size. The products were administered by the i.v. route once per week for 3 weeks (on days 10, 17 and 24), at their Maximum Tolerated Dose (MTD), MTD/2 and MTD/4.
The tumours were measured twice a week and the tumour volumes were calculated according to the following formula: volume (mm^3)=length (mm)×breadth (mm^2)/2. The anti-tumour activity is expressed as % T/C: […]
V0 and Vt being the initial volume of the tumour and its volume at measurement time t, respectively.
The optimum dose is the dose giving the lowest T/C value without toxicity (early death or weight loss greater than 20%).

For data set [4] the following is noted: general statement, limits bioavailability and i.v. use; cited from earlier work.

For `COc1cc2c(c3c1c(=O)c1cc4ccccc4cc1n3C)[C@@H](OC(C)=O)[C@@H](OC(=O)C=Cc1ccccc1)C(C)(C)O2` (racemic) [Example 2, (±)-cis-1-Acetoxy-2-cinnamoyloxy-6-methoxy-3,3,14-trimethyl-1,2,3,14-tetrahydro-1H-benzo[b]pyrano[3,2-h]acridin-7-one], the IC50 is 590 nM in data set [1] and 151 nM in data set [2]. For `COc1cc2c(c3c1c(=O)c1cc4ccccc4cc1n3C)[C@@H](OC(C)=O)[C@@H](OC(=O)C=Cc1ccc(Cl)c(Cl)c1)C(C)(C)O2` (single isomer, unassigned) [Example 33, (±)-cis-1-Acetoxy-2-(3,4-dichlorocinnamoyloxy)-6-methoxy-3,3,14-trimethyl-1,2,3,14-tetrahydro-1H-benzo[b]pyrano[3,2-h]acridin-7-one (Enantiomer β)], in data set [3] (optimum dose of 4 mg/kg), the “anti-tumour activity (% T/C)” value amounted to 50%. Take `COc1cc2c(c3c1c(=O)c1ccccc1n3C)C=CC(C)(C)O2` [acronycine, reference compound]: in data set [3] (optimum dose of 100 mg/kg), the “anti-tumour activity (% T/C)” value turned out to be 27%. The solubility entry in data set [4] is listed as “low”.
